Experimental data from patent publication US3991202A, “Imidazolium salts” (Janssen Pharmaceutica N.V., priority 1974, dated 1976).
Read-outs that look alike come from different tables or passages of the source.

Columns and labels:
Assay in all cases: Antibacterial growth inhibition in phenol red dextrose broth
Type in all cases: cell-based
[1] = system: Salmonella pullorum gallinarum; conditions: Salmonella enterica, 168 h; Sp. G.; tested at 100, 10, 1 μg/ml; read-out: Concentration in μ g for 100% Growth Inhibition
Procedure: (§1) The tests on bacteria were performed on cultures on phenol red dextrose broth medium (Difco). By using decimal dilution techniques described for the tests for antifungal activity, test media containing 100 μg, 10 μg and 1 μg of imidazolium salt per milliliter of medium were obtained. The inoculum consisted of a platinum loop (5 mm diameter) from a 24 hour broth culture. Forty-eight hours after incubation, subcultures were made from each culture for the determination of antibacterial activity of the imidazolium salts. After seven days of incubation, observations were made to determine the presence or absence of bacterial growth.

Escherichia coli = conditions: 168 h, E. coli, tested at 100, 10, 1 μg/ml, read-out: Concentration in μ g for 100% Growth Inhibition
Procedure: as §1

Pseudomonas aeruginosa = conditions: 168 h, Ps. aer., read-out: Concentration in μ g for 100% Growth Inhibition
Procedure: as §1

Streptococcus pyogenes = conditions: 168 h, Strep., tested at 100, 10, 1 μg/ml, read-out: Concentration in μ g for 100% Growth Inhibition
Procedure: as §1

[2] = system: Staphylococcus hemolyticus; conditions: 168 h, Staph., tested at 100, 10, 1 μg/ml, read-out: Concentration in μ g for 100% Growth Inhibition
Procedure: as §1

Erysipelothrix insidiosa = conditions: Erysipelothrix rhusiopathiae, 168 h; E. ins.; tested at 100, 10, 1 μg/ml; read-out: Concentration in μ g for 100% Growth Inhibition
Procedure: as §1

| MIC [1] [µg/mL] | MIC (Escherichia coli) [µg/mL] | MIC (Pseudomonas aeruginosa; tested at 100, 10, 1 μg/ml) [µg/mL] | MIC (Streptococcus pyogenes) [µg/mL] | MIC (Erysipelothrix insidiosa) [µg/mL] | MIC (Pseudomonas aeruginosa; growth observed at 100 μg/ml) [µg/mL] | SMILES | MIC [2] [µg/mL] |
| --- | --- | --- | --- | --- | --- | --- | --- |
| 10 | 100 | 100 | 1 | 1 |  | Cc1cc(Cl)ccc1NC(=O)CCn1cc[n+](CC(OCc2ccc(Cl)cc2Cl)c2ccc(Cl)cc2Cl)c1.[Cl-] (stereo not drawn) [(CH2)2CONHC6H32,4(CH3,Cl), 1-{2-[N-(4-chloro-o-tolyl)carbamoyl]ethyl}-3-[2,4-dichloro-β-(2,4-dichlorobenzyloxy)phenethyl]imidazolium chloride] | 1 |
| 10 | 10 | 100 | 1 | 1 |  | Clc1ccc(COC(C[n+]2ccn(CCNc3ccccc3)c2)c2ccc(Cl)cc2Cl)c(Cl)c1.[Br-] (stereo not drawn) [(CH2)2NHC6H5, 1-(2-Anilinoethyl)-3-[2,4-dichloro-β-(2,4-dichlorobenzyloxy)phenethyl]imidazolium bromide] | 1 |
| 10 | 10 | 100 | 1 | 1 |  | Clc1ccc(COC(C[n+]2ccn(CCNc3c(Cl)cccc3Cl)c2)c2ccc(Cl)cc2Cl)c(Cl)c1.O.[Br-] (stereo not drawn) [(CH2)2NHC6H32,6(Cl)2, 1-[2-(2,6-Dichloroanilino)ethyl]-3-[2,4-dichloro-β-(2,4-dichlorobenzyloxy)phenethyl]imidazolium bromide hydrate] | 1 |
| 100 | 100 | 100 | 10 | 10 |  | CCCCOC(Cn1cc[n+](CC(=O)Nc2ccc(F)cc2)c1)c1ccccc1Cl (stereo not drawn) [C6H4oCl/nC4H9/CH2CONHC6H4pF] | 100 |
| 100 | 100 | 100 | 10 | 10 |  | Cc1ccccc1NC(=O)C[n+]1ccn(CC(OCc2ccc(Cl)cc2)c2ccc(Cl)cc2)c1 (stereo not drawn) [C6H4pCl/CH2C6H4pCl/CH2CONHC6H4oCH3, 1-[p-Chloro-β-(p-chlorobenzyloxy)phenethyl]-3-(N-o-toylcarbamoylmethyl)imidazolium chloride] | 10 |
| 10 | 100 | 100 | 1 | 1 |  | Cc1ccccc1NC(=O)C[n+]1ccn(CC(OCc2ccc(Cl)cc2Cl)c2ccc(Cl)cc2)c1 (stereo not drawn) [C6H4pCl/CH2C6H32,4(Cl)2/CH2CONHC6H4oCH3, 1-[p-Chloro-β-(2,4-dichlorobenzyloxy)phenethyl]-3-(N-o-tolylcarbamoylmethyl)imidazolium chloride hydrate] | 100 |
| 10 | 10 | 100 | 1 | 1 |  | O=C(C[n+]1ccn(CC(OCc2ccc(Cl)cc2Cl)c2ccc(Cl)cc2)c1)Nc1ccc(F)cc1 (stereo not drawn) [C6H4pCl/CH2C6H32,4(Cl)2/CH2CONHC6H4pF, 1-[p-chloro-β-(2,4-dichlorobenzyloxy)phenethyl]-3-[N-(p-fluorophenyl)carbamoyl-methyl]imidazolium chloride] | 10 |
| 100 | 100 |  | 10 | 100 | > 100 | Clc1ccc(COC(C[n+]2ccn(Cc3ccccc3)c2)c2ccccc2)cc1.[Br-] (stereo not drawn) [C6H5/CH2C6H4pCl/CH2C6H5, 1-Benzyl-3-[β-(p-chlorobenzyloxy)phenethyl]imidazolium bromide] | 10 |
| 100 | 10 | 100 | 1 | 10 |  | Cc1ccc(C[n+]2ccn(CC(OCc3ccc(Cl)cc3Cl)c3ccc(Cl)cc3Cl)c2)cc1.[Br-] (stereo not drawn) [CH2C6H4pCH3, 1-[2,4-Dichloro-β-(2,4-dichlorobenzyloxy)phenethyl]-3-(p-methylbenzyl)imidazolium bromide] | 1 |
| 10 | 100 | 100 | 1 | 10 |  | Fc1ccc(C[n+]2ccn(CC(OCc3ccc(Cl)cc3Cl)c3ccc(Cl)cc3Cl)c2)cc1.[I-] (stereo not drawn) [CH2C6H4pF, 1-[2,4-Dichloro-β-(2,4-dichlorobenzyloxy)phenethyl]-3-(p-fluorobenzyl)-imidazolium iodide] | 1 |
| 10 | 10 | 100 | 1 | 1 |  | OC(Cn1cc[n+](CC(OCc2ccc(Cl)cc2Cl)c2ccc(Cl)cc2Cl)c1)c1ccc(Cl)cc1.[Br-] (stereo not drawn) [CH2CHOHC6H4pCl, 1-(p-chloro-β-hydroxyphenethyl)-3-[2,4-dichloro-β-(2,4-dichlorobenzyloxy)phenethyl]imidazolium bromide] | 1 |
| 10 | 10 | 100 | 1 | 1 |  | COc1ccccc1NC(=O)C[n+]1ccn(CC(OCc2ccc(Cl)cc2Cl)c2ccc(Cl)cc2Cl)c1 (stereo not drawn) [CH2CONHC6H4oOCH3, 1-[2,4-dichloro-β-(2,4-dichlorobenzyloxy)phenethyl]-3-[N-(o-methoxyphenyl)carbamoylmethyl]imidazolium chloride hydrate] | 1 |
| 100 | 10 | 100 | 1 | 1 |  | O=C(C[n+]1ccn(CC(OCc2ccc(Cl)cc2Cl)c2ccc(Cl)cc2Cl)c1)Nc1ccc(Cl)cc1 (stereo not drawn) [CH2CONHC6H4p(Cl), 1-[N-(p-chlorophenyl)carbamoylmethyl]-3-[2,4-dichloro-β-(2,4-dichlorobenzyloxy)phenethyl]imidazolium chloride hydrate] | 10 |
| 10 | 10 | 100 | 1 | 1 |  | O=C(C[n+]1ccn(CC(OCc2ccc(Cl)cc2Cl)c2ccc(Cl)cc2Cl)c1)Nc1ccc(F)cc1 (stereo not drawn) [CH2CONHC6H4pF, 1-[2,4-dichloro-β-(2,4-dichlorobenzyloxy)phenethyl]-3-[N-(p-fluorophenyl)carbamoylmethyl]imidazolium chloride] | 1 |
| 10 | 10 | 100 | 1 | 1 |  | COc1ccc(NC(=O)C[n+]2ccn(CC(OCc3ccc(Cl)cc3Cl)c3ccc(Cl)cc3Cl)c2)cc1 (stereo not drawn) [CH2CONHC6H4pOCH3] | 1 |
| 10 | 10 | 100 | 10 | 10 |  | Cc1ccc(CNC(=O)C[n+]2ccn(CC(OCc3ccc(Cl)cc3Cl)c3ccc(Cl)cc3Cl)c2)cc1 (stereo not drawn) [CH2CONHCH2C6H4pCH3, 1-[2,4-Dichloro-β-(2,4-dichlorobenzyloxy)phenethyl]-3-[N-(p-methylbenzyl)carbamoylmethyl]imidazolium chloride] | 10 |
| 100 | 100 | 100 | 1 | 1 |  | CC(C(=O)Nc1cccc(Cl)c1)[n+]1ccn(CC(OCc2ccc(Cl)cc2Cl)c2ccc(Cl)cc2Cl)c1 (stereo not drawn) [CH(CH3)CONHC6H4mCl, 1-{1-[N-(m-Chlorophenyl)carbamoyl]ethyl 56-3-[2,4-dichloro-β-(2,4-dichlorobenzyloxy)phenethyl]imidazolium bromide] | 1 |
| 100 | 100 | 100 | 1 | 1 |  | Fc1ccc(C(c2ccc(Cl)cc2)[n+]2ccn(CC(OCc3ccc(Cl)cc3Cl)c3ccc(Cl)cc3Cl)c2)cc1 (stereo not drawn) [drawing 69] | 1 |
